Laboratory results from patent US20130131062A1, “PYRIDAZINONES AND FURAN-CONTAINING COMPOUNDS” (priority 2006, published 2013).
Read-outs that look alike come from different tables or passages of the source. Values belong to the molecule of their own block, whether it stands above or below them.

Key:
H3255 = assay: Non Small Cell Lung Cancer Proliferation Assay (Alamar Blue); format: cell-based, human; conditions: for inhibition at 10 µM: Homo sapiens, NCI-H3255
Procedure: (§1) These cells have a doubling time of 1-2 days. All cell types are adherent and grow in colonies. The cells should be kept at a density between 50,000 cells/mL-500,000 cells/mL to provide for optimum growth and adequate nutrition. The cell line should be maintained at 37° C. in a humidified atmosphere with 5% CO2 in a sterile cell culture incubator.
(§2) To perform the assay, the Non Small Cell Lung Cancer lines are diluted in media and plated into 384 well microplates at a final density of 250 cells in 45 μL.
(§3) High Controls for this assay are made by treating Non Small Cell Lung Cancer cells with 5 ul of 10% DMSO. [Final concentration in this assay is 1% DMSO].
(§4) Important Note: All compounds for testing in this assay should be done at the final concentration of 1% DMSO.
(§5) After addition, the cells are placed in cell culture incubator at 37° C. for 48 hours for complete treatment.
(§6) After drug treatment, cytotoxicity is measured by Alamar Blue reduction.
(§7) The cells are incubated for 48 hours at 37° C. to complete the Alamar Blue reduction.
(§8) The final step in the assay is to measure the amount of Alamar Blue reduction. […] The Alamar Blue fluorescence is measured at an excitation of 530 nm and emission of 590 nm.
(§9) For the NSCLC project, the cell based assay was screened against a small molecule library of approximately 200,000 compounds. The compound library is stored in our automated robotic freezer (Biophile) at −20° C. in 100% DMSO. Compound freeze and thaw cycles are kept to a minimum. […] This assay was performed on a fully automated linear track robotic platform (CRS F3 Robot System, Thermo Electron Corp., Ontario, Canada) utilizing several integrated peripherals for plate handling, liquid dispensing, and readout detection. […] The microplates are then placed at 37° C. for 48 hours to complete treatment of cells with compounds. Next, 5 ul of alamar blue was added using a liquid dispenser (FlexDrop Precision Dispenser, Perkin Elmer, Mass., USA) and incubated for 48 hours at 37° C. The alamar blue prompt fluorescence was measured on Victor V (Victor^3 V, Perkin Elmer, Mass., USA) and output data files were loaded into ORIS (Oncology Research Informatics System, MSKCC, NY, USA), a screening data acquisition and analysis platform.

[1] = tested on: 15 non small cell lung cancer lines representing various EGFR and KRAS mutations; assay: Dose response studies against 15 NSCLC lines (alamar blue); format: cell-based, human
Procedure: Dose response studies against 34 compounds from the pyridazinone and phenylfuran-carboxamide class were conducted. […] In addition, Tarceva was included in these dose response studies.
The dose response studies were done with the following standard procedure. First, the cells were counted and dispensed at 250 cells/well into 384-well microplates with compound. The cells were incubated for 48 hours at 37 C to complete treatment, and then alamar blue was added for an additional 48 hours. Finally, alamar blue reduction was measured and the data was loaded into ORIS, our data screening acquisition platform.

H2030 = assay: Non Small Cell Lung Cancer Proliferation Assay (Alamar Blue); format: cell-based, human; conditions: for inhibition at 10 µM: Homo sapiens, NCI-H2030
Procedure: as §1, §2, §3, §4, §5, §6, §7, §8, §9

in vitro = conditions: human, NHBE CytoTox (uM)
Procedure: NHBE (normal human bronchiolar epithelial cells) are primary cells obtained from donor lungs and commercially available from Cambrex. The HPLID (human peripheral lung epithelial) cell line has been immortalized with the SV40 large T-antigen. WI-38: human lung fibroblast cell line. HPLID, NHBE and WI-38 cells will serve as controls in the chemical screens. WT: wildtype; WT*: over-expressed wildtype.
Compounds were tested in dose response studies from 10 μM to 5 nM against several non small cell lung cancer lines: H358, H827, H1118, H1650, H1734, H1975, H2030, and H3255, and were also studied in a 72 hour cytotoxicity assay against the NHBE and WI-38 cell lines.

H1650 = assay: Non Small Cell Lung Cancer Proliferation Assay (Alamar Blue); format: cell-based, human; conditions: for inhibition at 10 µM: Homo sapiens, NCI-H1650
Procedure: as §1, with “Non Small Cell Lung Cancer cell lines are grown and maintained in Corning 175 cm2 flasks in RPMI 1640 media supplemented with 10% FBS, 1% antibiotic solution, 1% additional glutamine and pyruvate. These” for “These”
(§10) To perform the assay, the Non Small Cell Lung Cancer lines are diluted in media and plated into 384 well microplates at a final density of 250 cells in 45 μL. To ensure consistency and minimal pipetting error, the cells are plated using the Multidrop 384 with the following settings: Rocker Switch set at 384, Volume 45 and Column 24.
(§11) Low Controls for this assay are made by treating Non Small Cell Lung Cancer cells with 5 ul of staurosporine at 250 uM in 10% DMSO and 1% SDS. [Final concentration in this assay is 25 uM staurosporine in 1% DMSO and 0.1% SDS.]
as §3
(§12) The remaining wells of the 384 microplate may be treated with different compounds depending on the study. Important Note: All compounds for testing in this assay should be done at the final concentration of 1% DMSO.
as §5
(§13) After drug treatment, cytotoxicity is measured by Alamar Blue reduction. 5 μL of Alamar Blue is added to the 384 microplates using the Flexdrop.
as §7, §8
(§14) For the NSCLC project, the cell based assay was screened against a small molecule library of approximately 200,000 compounds. The compound library is stored in our automated robotic freezer (Biophile) at −20° C. in 100% DMSO. Compound freeze and thaw cycles are kept to a minimum. Compounds for use are diluted into the appropriate concentration and plated into 384 well microplates using our custom built low volume 384-well head tool (TPS 384, Apricot Designs Inc., CA, USA). This assay was performed on a fully automated linear track robotic platform (CRS F3 Robot System, Thermo Electron Corp., Ontario, Canada) utilizing several integrated peripherals for plate handling, liquid dispensing, and readout detection. First, non-small cell lung cancer cell lines are dispensed into 384 well microplates (Corning #3712 Tissue Culture Treated Plate, Corning, N.Y., USA) with 5 μL of test compounds at 100 uM in 10% DMSO for screening studies or 1 mM in 10% DMSO to 50 nM in 10% DMSO for dose response studies. The microplates are then placed at 37° C. for 48 hours to complete treatment of cells with compounds. Next, 5 ul of alamar blue was added using a liquid dispenser (FlexDrop Precision Dispenser, Perkin Elmer, Mass., USA) and incubated for 48 hours at 37° C. The alamar blue prompt fluorescence was measured on Victor V (Victor^3 V, Perkin Elmer, Mass., USA) and output data files were loaded into ORIS (Oncology Research Informatics System, MSKCC, NY, USA), a screening data acquisition and analysis platform.

H1975 = assay: as above; format: cell-based, human; conditions: for inhibition at 10 µM: Homo sapiens, NCI-H1975
Procedure: as §1, with “Non Small Cell Lung Cancer cell lines are grown and maintained in Corning 175 cm2 flasks in RPMI 1640 media supplemented with 10% FBS, 1% antibiotic solution, 1% additional glutamine and pyruvate. These” for “These”
as §10, §11, §3, §12, §5, §13, §7, §8, §14

[2] = Homo sapiens, read-out: IC50 H23
[3] = Homo sapiens, read-out: IC50 H1118
[4] = Homo sapiens, read-out: IC50 HPL1D
[5] = Homo sapiens, read-out: IC50 PC9
[6] = Homo sapiens, PC9 (EGFR DclE746-A750, KRAS WT), 12 point doubling dilution 10 uM to 5 nM, alamar blue, read-out: IC50 PC9
[7] = primary screening, 10 μM compound in 1% DMSO (v/v)

Compound: Cc1ccc(NC(=O)c2ccc([N+](=O)[O-])o2)cc1 [compound 98697]
CONFIRMATION [%] 3255 (H3255; confirmation, percentage inhibition, 10 μM compound in 1% DMSO (v/v)): 130%
IC50 [1, 2]: 910 nM
IC50 [1, 3]: 560 nM
IC50 [1, 4]: > 10000 nM
IC50 [1, 5]: 2170 nM

IC50 (H2030; dose response 10 μM to 5 nM): 1420 nM
Compound: O=c1c(Br)c(Br)cnn1-c1cccc(C(F)(F)F)c1 [compound 267072]

Compound: Cc1cccc(-n2ncc(Cl)c(Cl)c2=O)c1 [compound 104122, 4,5-dichloro-2-m-tolyl-2H-pyridazin-3-one]
IC50 at 72 h (in vitro): 3.4 µM
IC50 [1, 2]: 210 nM
IC50 [1, 3]: 340 nM
IC50 [1, 4]: 280 nM
IC50 [1, 5]: 650 nM

IC50 [1, 6]: 900 nM
Compound: O=c1c(Cl)c(Cl)cnn1-c1cccc(C(F)(F)F)c1 [compound 176729]

IC50 (H3255; dose response 10 μM to 5 nM): 1110 nM
IC50 [1, 6]: > 10000 nM
Compound: O=c1c(Cl)c(Cl)cnn1-c1ccc(Cl)cc1Cl [compound 267077]

IC50 [1, 6]: > 10000 nM
Compound: Cc1cc(-n2ncc(Cl)c(Cl)c2=O)ccc1Cl [compound 267065]

Compound: O=c1c(Cl)c(Cl)cnn1-c1ccccc1 [compound 257014]
IC50 [1, 2]: 260 nM
IC50 [1, 3]: 450 nM
IC50 [1, 4]: 380 nM
IC50 [1, 5]: 830 nM

Compound: O=C(Nc1ccc(F)c(Cl)c1)c1ccc([N+](=O)[O-])o1 [compound 87200]
IC50 ([1]; HPL1D (SV40-immortalized human lung epithelian cells, EGFR WT, KRAS WT), 12 point doubling dilution 10 uM to 5 nM, alamar blue, read-out: IC50 HPL1D): > 10000 nM

Compound: Cc1c(Oc2ccccc2)nnn1-c1cnn(-c2ccccc2)c(=O)c1Br [compound 223337]
percentage inhibition H1650 (H1650; [7]): 13%
percentage inhibition H1975 (H1975; [7]): 5%
percentage inhibition H2030 (H2030; [7]): −14%
percentage inhibition H3255 (H3255; [7]): 61%

Compound: Cc1cccnc1NC(=O)c1ccc([N+](=O)[O-])o1 [compound 108321]
inhibition at 10 µM (H1650; percentage inhibition, H1650, screening concentration of 10 μM compound in 1% DMSO (v/v), read-out: R1650 PRIMARY HTS [%]): 38%
inhibition at 10 µM (H1975; percentage inhibition, H1975, screening concentration of 10 μM compound in 1% DMSO (v/v), read-out: R1975 PRIMARY HTS [%]): -7%
inhibition at 10 µM (H2030; percentage inhibition, H2030, screening concentration of 10 μM compound in 1% DMSO (v/v), read-out: H2030 PRIMARY HTS [%]): 6%
inhibition at 10 µM (H3255; percentage inhibition, H3255, screening concentration of 10 μM compound in 1% DMSO (v/v), read-out: H3255 PRIMARY HTS [%]): 2%

Compound: O=c1c2c(cnn1-c1ccccc1)SC(c1ccccc1)S2 (stereo not shown) [compound 182826]
inhibition at 10 µM (H1650; primary screening, 10 μM compound in 1% DMSO (v/v), read-out: percentage inhibition H1650): 13%
inhibition at 10 µM (H1975; primary screening, 10 μM compound in 1% DMSO (v/v), read-out: percentage inhibition H1975): 12%
inhibition at 10 µM (H2030; primary screening, 10 μM compound in 1% DMSO (v/v), read-out: percentage inhibition H2030): -11%
inhibition at 10 µM (H3255; primary screening, 10 μM compound in 1% DMSO (v/v), read-out: percentage inhibition H3255): -13%

IC50 ([1]; Homo sapiens, H23 (EGFR WT, KRAS G12C), 12 point doubling dilution 10 uM to 5 nM, alamar blue, read-out: IC50 H23): 70 nM
IC50 [1, 6]: 420 nM
Compound: O=c1c(Br)c(Br)cnn1-c1ccccn1 [compound 267073]
